# Test results published in patent US9993570B2, “Radiolabeled tracers for poly (ADP-ribose) polymerase-1 (PARP-1), methods and uses therefor” (Washington University, priority 2014, dated 2018).
# Test system: MDA-MB-231 tumors
# Assay: microPET imaging with [18F]12, MDA-MB-231 tumors
# Assay type: in vivo, mice
# Details: baseline, 60 minute dynamic scan
# Description: This example illustrates the visualization of tumor tissue in microPET in mice. MDA-MB-436 human breast cancer xenograft tumors in immune-deficient mice were visualized by PET using [^18F]12.
# Tumor-bearing mice were placed in an induction chamber containing ˜2% isoflurane/oxygen and then secured to a custom double bed for placement of tail vein catheters; anesthesia was maintained via nose-cone at ˜1% isoflurane/oxygen for the dynamic imaging procedure. The mice were injected with 150-200 μCi of [^18F]12 and scanned for 0-60 min using Focus 220 and Inveon PET/CT scanners. The standard uptake values (SUVs) were generated from manually drawn regions of interests for tumors and surrounding ‘background’ tissue. Visualization of specific uptake was determined by comparison of baseline scans with images acquired by tracer injection 20 minutes after pre-treatment with the blocking agents olaparib (50 mg/kg, IP) or 12 (1 mg/kg, IP).
# This example illustrates uptake of Compound 12 ([^18F]WC-4-138) in mice. Mature female athymic nude mice (Charles River Laboratories) were implanted with 10^6 SCC1 cells or 10^7 MDA-MB-231 cells into the mammary fat pads. Mice bearing SCC1 tumors were imaged at 5 weeks and mice bearing MDA-MB-231 cells were imaged at 2.5 weeks after implant. Mice were anesthetized with 2% isoflurane/oxygen and maintained at 1% isoflurane/oxygen via nose cone throughout the imaging procedure. Whole animal microCT images were acquired on an Inveon PET/CT scanner. The mice were injected via tail vein with 11.36±0.5 MBq (307±13 μCi) of [^18F]WC(4)-138 and underwent a 60 minute dynamic scan using Focus 220 or Inveon PET/CT scanners. The microPET and microCT images were coregistered using Integrated Research Workflow software (Siemens). Regions of interest were drawn over tumors to determine time activity curves. For drug treatment studies, animals reached intraperitoneal injections of 50 mg/kg olaparib or iniparib 30 minutes before imaging. Mice were imaged at baseline, or 30 minutes after IP injection of olaparib or iniparib. Arrows indicate location of tumors as identified on CT.
# In FIG. 8, mice were imaged at baseline, or 30 minutes after IP injection of olaparib or iniparib. (A) The percent of injected dose per ml was calculated for each MDA/MB-231 tumor at baseline or after drug treatment. […] Tracer uptake was unchanged in iniparib-treated mice (p=0.1098 as determined by a paired t test, n=6 tumors).
compound,measurement,value
O=C1NCCn2c(-c3ccc(OCC[18F])cc3)nc3cccc1c32 [[^18F]12],tracer uptake in MDA-MB-231 tumors (microPET images),abundantly taken up in tumors
